In article PMC11124507, “Synthesis and Evaluation of Novel ^68Ga-Labeled [D-Phe^6,Leu^13ψThz^14]bombesin(6-14) Analogs for Cancer Imaging with Positron Emission Tomography” (Pharmaceuticals, 2024):

Assays:
GRPR = biological target: T1, GRPR (Homo sapiens, UniProt P30550); test: Fluorometric intracellular calcium release assay in PC-3 cells; type: cell-based; conditions: 50 nM, n = 3
T1 construct: Known to overexpress GRPR, the PC-3 cell line, a human prostate cancer cell line; host or cells: PC-3 human prostate cancer cells
Procedure: Following previously published procedures, 5 × 10^4 PC-3 cells in 100 μL of growth media were seeded per well in a 96-well clear-bottom black plate 24 h prior to the assay. A loading buffer (100 μL/well) containing a calcium-sensitive dye (FLIPR Calcium 6 assay kit) was added to the 96-well plate. After incubation at 37 °C for 2 h, the plate was placed in a FlexStation 3 microplate reader (Molecular Devices, San Jose, CA, USA). TacsBOMB2 derivatives (50 nM), [D-Phe^6,Leu-NHEt^13,des-Met^14]Bombesin(6-14) (50 nM, antagonist control), bombesin (50 nM, agonist control), adenosine triphosphate (ATP, 50 nM, positive control), or DPBS (blank control) was added, and the fluorescent signals were acquired for 2 min (λEx = 485 nm; λEm = 525 nm; n = 3). The relative fluorescent units (RFUs = max − min) were measured to determine the agonistic/antagonistic properties.

PC-3 tumor xenografts = conditions: mouse, in vivo, 1 h; cited from earlier work

T1 sequence (P30550 whole entry): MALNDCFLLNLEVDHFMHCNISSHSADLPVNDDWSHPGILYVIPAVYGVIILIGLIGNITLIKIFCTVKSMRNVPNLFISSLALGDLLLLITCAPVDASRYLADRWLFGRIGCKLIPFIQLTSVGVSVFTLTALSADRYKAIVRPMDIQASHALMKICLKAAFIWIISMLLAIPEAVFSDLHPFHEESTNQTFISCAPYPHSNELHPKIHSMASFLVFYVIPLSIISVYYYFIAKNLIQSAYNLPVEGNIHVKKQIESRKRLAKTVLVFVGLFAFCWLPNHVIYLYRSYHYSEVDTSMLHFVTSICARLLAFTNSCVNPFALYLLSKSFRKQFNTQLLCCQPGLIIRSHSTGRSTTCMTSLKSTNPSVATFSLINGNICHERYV

Nc1ncnc2c1ncn2[C@@H]1O[C@H](COP(=O)(O)OP(=O)(O)OP(=O)(O)O)[C@@H](O)[C@H]1O [ATP, adenosine triphosphate]
Ca2+ efflux (GRPR): 222 ± 21.7 RFUs

[D-Phe^6,Leu-NHEt^13,des-Met^14]Bombesin(6-14)
Ca2+ efflux (GRPR): 38.2 ± 7.20 RFUs

[^68Ga]Ga-DOTA-Pip-D-Phe^6-Gln^7-Trp^8-Ala^9-Val^10-Gly^11-His^12-Leu^13ψThz^14-NH2 [[^68Ga]Ga-TacsBOMB2]
Adrenal glands uptake (PC-3 tumor xenografts): 0.57 ± 0.40 %ID/g
Blood uptake (PC-3 tumor xenografts): 0.76 ± 0.21 %ID/g
Bone uptake (PC-3 tumor xenografts): 0.19 ± 0.06 %ID/g
Brain uptake (PC-3 tumor xenografts): 0.05 ± 0.03 %ID/g
Fat uptake (PC-3 tumor xenografts): 0.09 ± 0.03 %ID/g
Heart uptake (PC-3 tumor xenografts): 0.27 ± 0.08 %ID/g
Kidneys uptake (PC-3 tumor xenografts): 2.51 ± 0.59 %ID/g
Large intestine uptake (PC-3 tumor xenografts): 0.37 ± 0.16 %ID/g
Liver uptake (PC-3 tumor xenografts): 2.61 ± 0.70 %ID/g
Lungs uptake (PC-3 tumor xenografts): 0.75 ± 0.52 %ID/g
Muscle uptake (PC-3 tumor xenografts): 0.15 ± 0.05 %ID/g
PC-3 tumor uptake (PC-3 tumor xenografts): 10.2 ± 2.27 %ID/g
Pancreas uptake (PC-3 tumor xenografts): 2.81 ± 0.78 %ID/g
Small intestine uptake (PC-3 tumor xenografts): 1.04 ± 0.30 %ID/g
Spleen uptake (PC-3 tumor xenografts): 0.47 ± 0.17 %ID/g
Stomach uptake (PC-3 tumor xenografts): 0.32 ± 0.08 %ID/g
Testes uptake (PC-3 tumor xenografts): 0.19 ± 0.05 %ID/g

bombesin
Ca2+ efflux (GRPR): 499 ± 73.4 RFUs
